# Data as given in patent US6489098B1, “Means and methods for monitoring nucleoside reverse transcriptase inhibitor antiretroviral therapy and guiding therapeutic decisions in the treatment of HIV/AIDS” (ViroLogic, Inc., priority 1998, dated 2002).
# Columns and labels:
# [1] = test system: HIV-1 RT mutant resistance test vector 41 + 184 + 215; assay: Phenotypic susceptibility assay, site directed RTV 41 + 184 + 215; type: cell-based; settings: RTV with 41 + 184 + 215; 3 replicates
# Description: (§1) Resistance tests were carried out with resistance test vectors using two host cell types. Resistance test vector viral particles were produced by a first host cell (the resistance test vector host cell) that was prepared by transfecting a packaging host cell with the resistance test vector and the packaging expression vector. The resistance test vector viral particles were then used to infect a second host cell (the target host cell) in which the expression of the indicator gene is measured.
# (§2) The resistance test vectors containing a functional luciferase gene cassette were constructed and host cells were transfected with the resistance test vector DNA. The resistant test vectors contained patient-derived reverse transcriptase and protease sequences that were either susceptible or resistant to the antiretroviral agents, such as nucleoside reverse transcriptase inhibitors, non-nucleoside reverse transcriptase inhibitors and protease inhibitors. The resistance test vector viral particles produced by transfecting the resistance test vector DNA into host cells, either in the presence or absence of protease inhibitors, were used to infect target host cells grown either in the absence of NRTI or NNRTI or In the presence of increasing concentrations of the drug. The amount of luciferase activIty produced in infected target host cells in the presence of drug was compared to the amount of luciferase produced in infected target host cells in the absence of drug. Drug resistance was measured as the amount of drug required to inhibit by 50% the luciferase activity detected in the absence of drug (Inhibitory concentration 50%, IC50). The IC50 values were determined by plotting percent drug inhibition vs. log 10 drug concentration.
# (§3) Host cells were seeded in 10-cm-diameter dishes and were transfected several days after plating with resistance test vector plasmid DNA and the envelope expression vector. Transfections were performed using a calcium-phosphate precipitation procedure. The cell culture media containing the DNA precipitate was replaced with fresh medium, from one to 24 hours, after transfection. Cell culture media containing resistance test vector viral particles was harvested one to four days after transfection and was passed through a […] filter before being stored at −80° C. HIV capsid protein (p24) levels in the harvested cell culture media were determined by an EIA method as described by the manufacturer (SIAC; Frederick, Md.). Before infection, target cells (293 and 293/T) were plated in cell culture media. Control infections were performed using cell culture media from mock transfections (no DNA) or transfections containing the resistance test vector plasmid DNA without the envelope expression plasmid. One to three or more days after infectIon the media was removed and cell lysis buffer (Promega) was added to each well. Cell lysates were assayed for luciferase activity (FIG. 3). The inhibitory effect of the drug was determined using the following equation:
# (§4) % luciferase inhibition=1−(RLUluc[drug]÷RLUluc)×100
# (§5) where RLUluc [drug] is the relative light unit of luciferase activity in infected cells in the presence of drug and RLUluc is the Relative Light Unit of luciferase activity in infected cells in the absence of drug. IC50 values were obtained from the sigmoidal curves that were generated from the data by plotting the percent inhibition of luciferase activity vs. the log 10 drug concentration. The drug inhibition curves are shown in (FIG. 3).
# (§6) Genotypic changes that are observed to correlate with changes in phenotypic patterns of drug susceptibility are evaluated by construction of resistance test vectors containing the specific mutation on a defined, wild-type (drug susceptible) genetic background. Mutations may be incorporated alone and/or in combination with other known drug resistance mutations that are thought to modulate the susceptibility of HIV to a certain drug or class of drugs. […]
# [2] = test system: HIV-1 RT mutant resistance test vector A62V+T69SSA; assay: Phenotypic susceptibility assay, site directed RTV A62V+T69SSA; type: cell-based; settings: RTV with 62 + 69 (A62V+T69SSA); 4 replicates
# Description: as §1, §2, §3, §4, §5, §6
# [3] = test system: HIV-1 RT mutant resistance test vector M41L+A62V+T69SSA+M184V+T215Y; assay: Phenotypic susceptibility assay, site directed RTV M41L+A62V+T69SSA+M184V+T215Y; type: cell-based; settings: RTV with 41 + 62 + 69 + 184 + 215; 2 replicates
# Description: as §1, §2, §3, §4, §5, §6
# [4] = test system: HIV-1 RT mutant resistance test vector T69SSA; assay: Phenotypic susceptibility assay, site directed RTV T69SSA; type: cell-based; settings: RTV with T69SSA vs wild type RTV; 3 replicates
# Description: as §1, §2, §3, §4, §5, §6
# [5] = test system: HIV-1 RT mutant resistance test vector M41L-T69SSA-T215Y-RTV; assay: Phenotypic susceptibility assay, site directed RTV M41L+T69SSA+T215Y; type: cell-based; settings: for effect on susceptibility (words): RTV with M41L+T69SSA+T215Y
# Description: as §1, §2, §3, §4, §5, §6
# [6] = test system: HIV-1 RT mutant resistance test vector 41 + 62 + 69 + 75S + 210 + 215; assay: Phenotypic susceptibility assay, site directed RTV 41 + 62 + 69 + 75S + 210 + 215; type: cell-based; settings: RTV with 41 + 62 + 69 + 75S + 210 + 215; 1 replicate
# Description: as §1, §2, §3, §4, §5, §6
# [7] = test system: HIV-1 RT mutant resistance test vector 41 + 62 + 69 + 75M + 210 + 215; assay: Phenotypic susceptibility assay, site directed RTV 41 + 62 + 69 + 75M + 210 + 215; type: cell-based; settings: RTV with 41 + 62 + 69 + 75M + 210 + 215; 1 replicate
# Description: as §1, §2, §3, §4, §5, §6
# [8] = test system: HIV-1 RT mutant resistance test vector A62V; assay: Phenotypic susceptibility assay, site directed RTV A62V; type: cell-based; settings: RTV with A62V vs wild type RTV; 3 replicates
# Description: as §1, §2, §3, §4, §5, §6
# [9] = test system: HIV-1 RT mutant resistance test vector 41 + 210 + 215; assay: Phenotypic susceptibility assay, site directed RTV 41 + 210 + 215; type: cell-based; settings: RTV with 41 + 210 + 215; 3 replicates
# Description: as §1, §2, §3, §4, §5, §6
# [10] = test system: HIV-1 RT mutant resistance test vector 41 + 69 + 184 + 215; assay: Phenotypic susceptibility assay, site directed RTV 41 + 69 + 184 + 215; type: cell-based; settings: RTV with 41 + 69 + 184 + 215; 2 replicates
# Description: as §1, §2, §3, §4, §5, §6
# [11] = test system: HIV-1 RT mutant resistance test vector 41 + 215 (M41L and T215Y); assay: Phenotypic susceptibility assay, site directed RTV 41 + 215; type: cell-based; settings: RTV with 41 + 215; 4 replicates
# Description: as §1, §2, §3, §4, §5, §6
# [12] = test system: HIV-1 RT mutant resistance test vector A62V+T69SSA+V75I; assay: Phenotypic susceptibility assay, site directed RTV A62V+T69SSA+V75I; type: cell-based; settings: RTV with 62 + 69 + 751 (A62V, T69SSA, V75I); 1 replicate
# Description: as §1, §2, §3, §4, §5, §6
# [13] = test system: HIV-1 RT mutant resistance test vector M41L-A62V-T69SSA-T215Y-L210W-RTV; assay: Phenotypic susceptibility assay, site directed RTV M41L+A62V+T69SSA+L210W+T215Y; type: cell-based; settings: RTV with 41 + 62 + 69 + 210 + 215; 3 replicates
# Description: as §1
# as §2, with “Drug resistance was measured as the amount of drug required to inhibit by 50% the luciferase activity detected in the absence of drug (Inhibitory concentration 50%, IC50).” left out
# (§7) Host cells were seeded in 10-cm-diameter dishes and were transfected several days after plating with resistance test vector plasmid DNA and the envelope expression vector. […] HIV capsid protein (p24) levels in the harvested cell culture media were determined by an EIA method as described by the manufacturer (SIAC; Frederick, Md.). […] The inhibitory effect of the drug was determined using the following equation: […]
# [14] = test system: HIV-1 RT mutant resistance test vector A62V-T69SSA-L74V-RTV; assay: Phenotypic susceptibility assay, site directed RTV A62V-T69SSA-L74V; type: cell-based; settings: RTV with 62 + 69 + 74V; 1 replicate
# Description: as §1, §2
# as §3, with “Cell lysates were assayed for luciferase activity (FIG. 3).” left out
# as §4
# where RLUluc [drug] is the relative light unit of luciferase activity in infected cells in the presence of drug and RLUluc is the Relative Light Unit of luciferase activity in infected cells in the absence of drug. IC50 values were obtained from the sigmoidal curves that were generated from the data by plotting the percent inhibition of luciferase activity vs. the log 10 drug concentration. […]
# [15] = test system: HIV-1 RT mutant resistance test vector A62V-T69SSA-T215Y-RTV; assay: Phenotypic susceptibility assay, site directed RTV A62V-T69SSA-T215Y; type: cell-based; settings: RTV with 62 + 69 + 215 (A62V, T69SSA, T215Y); 1 replicate
# Description: as §1
# (§8) The resistance test vectors containing a functional luciferase gene cassette were constructed and host cells were transfected with the resistance test vector DNA. […] The IC50 values were determined by plotting percent drug inhibition vs. log 10 drug concentration.
# as §7
# [16] = test system: HIV-1 RT mutant resistance test vector M41L-T69SSA-T215Y-L210W-V75M-RTV; assay: Phenotypic susceptibility assay, site directed RTV M41L+T69SSA+V75M+L210W+T215Y; type: cell-based; settings: RTV with 41 + 69 + 75M + 210 + 215; 1 replicate
# Description: as §1, §8, §7
# [17] = test system: HIV-1 RT mutant resistance test vector M41L-A62V-T69SSA-T215Y-RTV; assay: Phenotypic susceptibility assay, site directed RTV M41L+A62V+T69SSA+T215Y; type: cell-based; settings: RTV with 41 + 62 + 69 + 215; 3 replicates
# Description: as §1, §2
# as §3, with “Cell lysates were assayed for luciferase activity (FIG. 3).” left out
# as §4
# where RLUluc [drug] is the relative light unit of luciferase activity in infected cells in the presence of drug and RLUluc is the Relative Light Unit of luciferase activity in infected cells in the absence of drug. IC50 values were obtained from the sigmoidal curves that were generated from the data by plotting the percent inhibition of luciferase activity vs. the log 10 drug concentration.
# Mutations may be incorporated alone and/or in combination with other known drug resistance mutations that are thought to modulate the susceptibility of HIV to a certain drug or class of drugs. Mutations are introduced into the resistance test vector through any of the widely known methods for site-directed mutagenesis. In one embodiment of this invention the mega-primer PCR method for site-directed mutagenesis is used.
# [18] = test system: HIV-1 RT mutant resistance test vector M41L-T69SSA-T215Y-L210W-RTV; assay: Phenotypic susceptibility assay, site directed RTV M41L+T69SSA+L210W+T215Y; type: cell-based; settings: RTV with 41 + 69 + 210 + 215; 3 replicates
# Description: as §1
# as §2, with “Drug resistance was measured as the amount of drug required to inhibit by 50% the luciferase activity detected in the absence of drug (Inhibitory concentration 50%, IC50).” left out
# as §7
# [19] = test system: ZDV-resistant HIV isolates; settings: cited from earlier work
# [20] = test system: HIV with RT Lys65→Arg mutation; settings: Lys65→Arg (K65R); cited from earlier work
# [21] = test system: AZT-resistant, 3TC-resistant and multi-drug resistant viruses; settings: cited from earlier work
# [22] = test system: HIV with RT K70E mutation; settings: in vitro selection; cited from earlier work
structure (smiles),measurement,setting,value
"Nc1ccn([C@@H]2CS[C@H](CO)O2)c(=O)n1 [3TC, lamivudine]",Average fold reduction in susceptibility,[1],>110 fold
same,Average fold reduction in susceptibility,[2],2.89 fold
same,Average fold reduction in susceptibility,[3],>110 fold
same,Average fold reduction in susceptibility,[4],3.20 fold
same,Average fold reduction in susceptibility,"[5]; RTV with 41 + 69 + 215 (M41L, T69SSA, T215Y), 2 replicates",6.27 fold
same,Average fold reduction in susceptibility,[6],31.67 fold
same,Average fold reduction in susceptibility,[7],18.41 fold
same,Average fold reduction in susceptibility,[8],0.54 fold
same,Average fold reduction in susceptibility,[9],2.14 fold
same,Average fold reduction in susceptibility,[10],>110 fold
same,Average fold reduction in susceptibility,[11],1.89 fold
same,Average fold reduction in susceptibility,[12],4.08 fold
"Cc1ccnc2c1NC(=O)c1cccnc1N2C1CC1 [NEV, nevirapine]",Average fold reduction in susceptibility,[13],0.6 fold
same,Average fold reduction in susceptibility,[14],0.3 fold
same,Average fold reduction in susceptibility,[15],0.6 fold
same,Average fold reduction in susceptibility,[16],0.5 fold
same,Average fold reduction in susceptibility,[17],0.8 fold
same,effect on susceptibility (words),[5],slight increase in susceptibility to DEL and NEV
same,Average fold reduction in susceptibility,[18],0.42 fold
"[N-]=[N+]=N[C@H]1C[C@H](n2ccc(=O)[nH]c2=O)O[C@@H]1CO [AZU, 3′-azido-2′,3′-dideoxyuridine]",cross-resistance of ZDV-resistant strains,[19],cross-resistance
"CC(C)Nc1cccnc1N1CCN(C(=O)c2cc3cc(NS(C)(=O)=O)ccc3[nH]2)CC1 [DEL, delavirdine]",Average fold reduction in susceptibility,[13],0.2 fold
same,Average fold reduction in susceptibility,[14],0.4 fold
same,Average fold reduction in susceptibility,[15],0.3 fold
same,Average fold reduction in susceptibility,[16],0.25 fold
same,Average fold reduction in susceptibility,[17],0.2 fold
same,effect on susceptibility (words),[5],slight increase in susceptibility to DEL and NEV
same,Average fold reduction in susceptibility,[18],0.13 fold
Nc1ncnc2c1ncn2CCOCP(=O)(O)O [adefovir],fold increase in IC50 / reduction in susceptibility,[20],16 fold
same,sensitivity of resistant viruses,[21],remain sensitive to adefovir
same,fold reduction in susceptibility,[22],9 fold
